Results reported in US20100137394A1, “PYRAZOLE INHIBITORS OF WNT SIGNALING” (Grenentech, Inc., priority 2007, published 2010).

Tested on: Wnt pathway signaling
Test: Wnt Assay (Super8xTopflash reporter assay)
Format: cell-based
Conditions: 10T1/2 Super8xTopflash reporter cell line, Wnt3a in medium, luciferase signal read after 20-24 h; read-out: IC50, inhibition of Wnt pathway signaling activity
Description: 10T1/2 Super8xTopflash reporter cell line was generated by stable transfection of a Super8xTopflash reporter plasmid containing 8 tandem repeats of TCF4 binding sites upstream of Luciferase gene. Cells were seeded at 20 K/well density (in normal growth medium with 10% FBS and 0.4 mg/ml G418) in white 96-well plates with clear bottom (BD Falcon Microtest Optilux plate, Ref. 353947) and grown for 20-24 hours. Fesh growth medium was prepared without G418 and with appropriate Wnt3a concentration (concentration that gave 40-50% of maximum activation based on the dose-response curve performed for each new batch of protein; typically ˜0.1 ug/ml).
Old medium was removed from the 96-well plate, which was gently blotted on paper towel, then all relevant wells were replenished with fresh medium containing Wnt (100 ul/well).
The wells with highest compound concentrations (usually 10 or 30 uM) were filled separately with 150 ul of prepared medium containing both Wnt3a and the test compounds. Using a multichannel pipetman, 50 ul was drawn from these wells and dispensed and mixed gently into the next row of wells to achieve 1:3 dilution of compounds. […]
After 20-24 h the cells were lysed and the luciferase signal was read using Perkin Elmer luclite assay system, Cat. #6016911). […] Approximately 15 min later the plates were read on a TopCount machine.

An IC50 of 218 nM was found for COc1ccc(CC(=O)N2CCC(c3ccc(NS(C)(=O)=O)cc3)=N2)cc1OC [compound 12] in this work.
